Test results as given in a melting point compilation (Tetko et al.; mined from patent text by program, amines drawn as free bases though some values may be those of a salt).

Row | Compound | melting point [°C]
1 | CC(CCCl)C(=O)Nc1nnc(C(C)(C)C)s1 (configuration not stated) | 124 to 126
2 | O=C(Cc1ccc2ccccc2c1)Nc1cc(-c2ccncc2)[nH]n1 | 227 to 235
3 | N#Cc1c(-c2ccc(OCc3ccccc3)cc2)[nH]c2ccc(OCc3ccccc3)cc12 | 64 to 66
4 | CC(C)N1C(=O)c2ccccc2N(C#N)S1(=O)=O | 99 to 101
5 | O=c1c2c(n(-c3ccccc3)c3ncccc13)SCC2 | 260 to 261
6 | COC(=O)CCc1ccc(OCCC2Oc3ccccc3N(Cc3cccc(Cl)c3)C2=O)cc1 (configuration not stated) | 88 to 89
7 | COc1ccc(CN2C(=O)[C@@H](NC(=O)Cc3ccccc3)[C@H]2COS(=O)(=O)c2ccc(C)cc2)c(OC)c1 (relative stereo) | 109 to 110
8 | CCOC(=O)C1=C(N)NC(c2ccccc2)=CC1c1ccccc1 (configuration not stated) | 159
9 | Cc1cccc(NC(=O)Nc2c(-c3ccccc3Cl)c3cc(C)c(C)cc3n(C)c2=O)c1 | 210 to 211
10 | CCc1cc(C(=O)O)c(Nc2ccc(F)cc2[N+](=O)[O-])s1 | 198 to 200
11 | C(=C(/c1ccccc1)n1c2ccccc2c2ccccc21)/c1ccccc1 | 160 to 162
12 | CC(C)C[C@H](NC(=O)CCCc1ccccc1)C(=O)N[C@@H](C(C)C)[C@@H](O)c1c(-c2ccccc2)c1=O | 91 to 96
13 | CCOC(=O)c1cc(OCC)c(OC(C)C)cc1N | 91 to 93
14 | O=c1[nH]ccc2c(OCc3ccccc3)cccc12 | 165 to 168
15 | CCOC(=O)c1c2ccc(CC(=O)NOCCCN(CC)CC)ccc-2c(C(=O)OCC)c1N | 125 to 127
16 | NS(=O)(=O)c1cc(C(=O)OC[C@@H]2CCCN2N=O)c(NCc2ccco2)cc1Cl | 79 to 81
17 | CCCCC1=NC2(CCCC2)C(=O)N1Cc1ccc(-c2ccccc2S(=O)(=O)NC(=O)c2onc(C)c2C)c(CN2CCC(C)(C)C2=O)c1 | 104 to 110
18 | Cc1cccc(C2(CCC(=O)O)NC(=O)NC2=O)c1 (configuration not stated) | 173 to 178
19 | CC(Oc1ccc(Cl)cc1[N+](=O)[O-])c1ccnc2ncnn12 (configuration not stated) | 158
20 | CCOC(=O)C(=CNc1ccn(-c2ccccc2)n1)C(=O)OCC | 81 to 82
21 | CCCCC(=O)Nc1ccc(Cl)c(-n2nc(CCCC)n(Cc3ccc(-c4ccccc4S(=O)(=O)NC(=O)OC(C)(C)C)cc3)c2=O)c1 | 177 to 179
22 | CCCn1ncnc1COc1nn2c(-c3ccccc3)nnc2cc1-c1ccccc1 | 211 to 213
23 | COc1cccc(C2C(=O)c3ccccc3C2=O)c1 | 142 to 144
24 | CC1=C(C(=O)O)[C@H](c2cccc([N+](=O)[O-])c2)C(C(=O)OCOC(=O)C(C)(C)C)=C(C)N1 | 146 to 148
25 | CCOC(=O)C1=C(C)NC(CSCCl)=C(C(=O)OCC)C1c1cccc([N+](=O)[O-])c1 (configuration not stated) | 157 to 159

Row | Compound | melting point [°C]
26 | COC(=O)c1ccc(CCCCO)cc1 | 95.5 to 96
27 | CC(=O)OCC(=O)C1(OC(C)=O)CCC2C3C=C(C)C4=CC(=O)CCC4(C)C3CCC21C (configuration not stated) | 213 to 215
28 | COc1cc(N)c(Cl)cc1C(=O)NCC1CCN(CCCCCNCc2ccc(F)cc2)CC1 | 66 to 68
29 | O=C(O)CN1C(=O)C(=Cc2c(-c3ccccc3)[nH]c3ccccc23)SC1=S | 258 to 262
30 | CCCC[C@H](NC(=O)[C@H](CC(C)C)NC(=O)c1ccccc1C(F)(F)F)C(=O)CSCc1ccco1 | 102 to 106
31 | CC(C)(C)COC(=O)N1CC2CC(CN(CC(O)COc3ccc(C#N)cc3)C2)C1 (configuration not stated) | 146 to 147
32 | CC(C)(C(=O)c1ccc(SCCO)cc1)N1CCOCC1 | 62 to 64
33 | COc1cc(C#N)cc2cc(CO)oc12 | 149 to 150
34 | COC(=O)c1ccc(C(F)(F)F)cc1NC(C)=O | 86 to 87
35 | O=C(CC(=O)C(F)(F)F)Nc1cc(-c2ccccc2Br)n[nH]1 | 128 to 131
36 | COc1cc(C=C(C(=O)NC2CCC(C)CC2)c2ccccc2)ccc1OC(C)=O (configuration not stated) | 136 to 140
37 | CCCOc1c(OC)cc(C(=O)O)cc1[N+](=O)[O-] | 121 to 123
38 | O=C(c1ccc(Cn2cnc3cnccc32)cc1)N1CCOCC1 | 119 to 121
39 | CC(=O)Nc1cc(C(C)(C)C)c(SC2=C(O)CC(CCc3ccc(O)cc3)(C3CCCCC3)OC2=O)cc1C (configuration not stated) | > 154
40 | CCCOc1cc(C(=O)O)cc([N+](=O)[O-])c1-c1ccccc1 | 142 to 144
41 | CCOCc1nc2c(N)nc(C)c(C)c2n1CCNS(C)(=O)=O | 185 to 187
42 | COc1cc(-c2ccc(N)cn2)cc(OC)c1OC | 154 to 156
43 | CC(Br)c1ccc(-c2nc3ccccc3o2)cc1 (configuration not stated) | 128 to 131
44 | CN(C)CCc1nnc2n1-c1ccc(Cl)cc1C(c1ccccc1Cl)=NC2 | 150 to 153
45 | c1ccc(-c2ccc3nc(-c4ccccc4)oc3n2)cc1 | 151 to 152
46 | O=C(NCCCCC1CCSS1)N1CCCCC1 (configuration not stated) | 90 to 91
47 | CCOCCCCCCCCCCC(=O)O | 44 to 45.5
48 | CCOC(=O)c1cc(N(C)C)ncn1 | 40 to 42
49 | O=C(CCC(=O)N1CCC(c2ccc(Cl)cc2)CC1)c1ccc2c(c1)CCNCC2 | 148 to 149
50 | CC(C)(C)OC(=O)c1ncn2c1C1C=CCN1C(=O)c1c(Cl)cccc1-2 (configuration not stated) | 227 to 229

Row | Compound | melting point [°C]
51 | CC1(COc2ccc([N+](=O)[O-])cc2)CC(=O)c2cc(O)c(C(C)(C)C)cc2O1 (configuration not stated) | 205 to 209
52 | Cn1c(=O)c2[nH]c(/C=C/c3ccc4c(c3)OCO4)nc2n(C)c1=O | > 275
53 | CCCOC(=O)Cc1ccc2c(c1)C(=O)c1ccccc1CO2 | 30 to 32
54 | CCCNC(=O)N(C)C1CCNCC1 | 84 to 86
55 | COc1c(N2CCC(c3ccccc3CN)C2)c(F)cc2c(=O)c(C(=O)O)cn(C3CC3)c12 (configuration not stated) | 170 to 174
56 | CCCCSc1nnc(N(C)C(=O)NC)s1 | 135 to 137
57 | O=S1(=O)N=CN(C2CC2)c2c1ccc(F)c2Cl | 147 to 148
58 | Cn1cc(C#N)c([N+](=O)[O-])n1 | 85 to 87
59 | CC(C)c1nn(-c2ccccn2)c(-c2ccc(F)cc2)c1Br | 98 to 100
60 | COc1cc(C(=O)NCc2ccc3c(c2)C(=C2CCN(C)CC2)c2ccccc2C=C3)cc(OC)c1OC | 200 to 202
61 | N=C(Nc1ccc2c(c1)C1CCCN1CC2)c1cccs1 (configuration not stated) | 193 to 196
62 | CN(C)C1CCN(c2nccc(Oc3ccc(NC(=O)c4cc(F)cc(N5CCOCC5)c4)c4ccccc34)n2)C1 (configuration not stated) | 106 to 108
63 | CS(=O)(=O)NCCn1c(=O)c(-c2cccs2)nc2ccccc21 | 236 to 237
64 | COc1cccc(COc2cc3c(cc2-c2cc(C=CC(=O)O)ccc2OC)C(C)(C)CCC3(C)C)c1 | 76 to 78
65 | O=C(c1ccccc1)C(c1ccc(Cl)cc1)c1c(Cl)cc(-n2ncc(=O)[nH]c2=O)cc1Cl (configuration not stated) | 143
66 | O=S(=O)(Oc1cc(I)c(I)cc1OS(=O)(=O)C(F)(F)F)C(F)(F)F | 46.5 to 47.7
67 | Cc1cc(SC2=C(O)CC(CCc3ccsc3)(C(C)C)OC2=O)c(C(C)(C)C)cc1CO (configuration not stated) | 63 to 70
68 | CC1(C)CCC(C)(C)c2c(O)cc(C=O)cc21 | 144
69 | Nc1cc(N2CCNCC2)ccc1[N+](=O)[O-] | 159 to 160
70 | COc1ccc(C(=O)Nc2c(Cl)cncc2Cl)c2c1OC(C)C2C(=O)C1NCCc2ccccc21 (configuration not stated) | 211 to 213
71 | CC1(C)Cc2c(c(N3CCOCC3)nc3sc4c(NCCCN5CCCC5=O)ncnc4c23)CO1 | 216 to 217
72 | COCc1cccc(OCCc2cnc(SC)[nH]c2=O)c1 | 129 to 131
73 | CC(=O)NCC[C@@H]1CCc2ccc3nn(C)c(F)c3c21 | 155 to 156
74 | CCSSCS(C)(=O)=O | 34.6 to 36.3
75 | COc1ccc2cc(CCC3(C)OCCO3)cc(F)c2c1 | 51 to 53

Row | Compound | melting point [°C]
76 | Cc1ccc(OCc2ccc(OCc3nc(-c4ccccc4)oc3C)cc2)c(CC(=O)O)c1 | 115 to 116
77 | Clc1ccc(Cn2cnc3c(Cl)ncnc32)cc1Cl | 130 to 133
78 | CC(C)(CO)C(=O)N(O)Cc1ccccc1Cl | 130 to 132
79 | CC(C)(C)c1ccc(-c2ccc3c(-c4ccc(C(C)(C)C)cc4)cc4c5cc(-c6ccc(C(C)(C)C)cc6)ccc5c(-c5ccc(C(C)(C)C)cc5)cc4c3c2)cc1 | 376
80 | NC(=O)c1nc2cnc3ccccc3c2[nH]1 | 326 to 328
81 | O=C1c2ccccc2-c2c1c1ccccc1c(=O)n2CCNCCO | 184
82 | CSc1nn2c(N)cc(C)nc2c1S(=O)(=O)c1ccc(C(C)(C)C)cc1 | > 230
83 | CC(=O)N1CCC(OC(=O)c2ccccc2)(c2nccc3ccccc23)CC1 | 186 to 189
84 | COc1cccc(C2=C(C(=O)c3ccc(O)cc3)c3ccc(OC)cc3CC2)c1 | 197 to 198
85 | Nc1c(Nc2cccc3cnccc23)c(=O)c1=O | 215
86 | COC1=C(C(=O)c2ccc(C)cc2)C(c2ccc(C(C)C)cc2)N(c2ncc(S(=O)(=O)c3ccc([N+](=O)[O-])cc3)s2)C1=O (configuration not stated) | 237
87 | CCS(=O)(=O)N[C@H](C(=O)NCCc1ccc(OC/C=C/c2ccccc2)c(OC)c1)C(C)C | 128 to 133
88 | CCc1nccc(NC(=O)Cc2ccc(Oc3ccc([N+](=O)[O-])cn3)cc2)c1Cl | 128 to 131
89 | Nc1nc2c(ncn2COCCCO)c(=O)[nH]1 | 223
90 | COc1ccccc1Oc1c(NS(=O)(=O)c2cc(Cl)sc2Cl)nc(-c2ncccn2)nc1OCCOC(=O)Nc1ccccn1 | 194 to 197
91 | CCCCc1ncc(/C=C(\Cc2cccs2)C(N)=O)n1Cc1ccccc1[N+](=O)[O-] | 183 to 185
92 | CNC(=O)c1ncnc(C)c1NC(=O)c1cc(Cl)nn1-c1ncccc1Cl | 205 to 207
93 | [N-]=[N+]=NS(=O)(=O)c1ccc(N2CC(CO)OC2=O)cc1 (configuration not stated) | 108 to 110
94 | CCOc1cc(Cc2cnc(N)nc2N)cc2c1OC(C)(C)C=C2Cl | 197 to 199
95 | COC(=O)N1C=C(C=O)CC([C@@H]2CCCN2C)=C1 | 78 to 80
96 | O=C(O)CCc1c[nH]c2c(C(=O)c3ccccc3)cccc12 | 166
97 | CCc1noc(C)c1-c1[nH]c2ccccc2c1CC(N)=O | 194 to 195
